Converted amounts (≈) assume the structure as drawn.
Assays:
[1] = test system: methicillin-susceptible S. aureus (MSSA, 22); assay: MIC broth microdilution, MSSA; details: MSSA (22)
[2] = test system: methicillin-resistant S. aureus (MRSA, 22); assay: MIC broth microdilution, MRSA; details: MRSA (22)
[3] = test system: vancomycin-intermediate S. aureus (VISA, 5); assay: MIC broth microdilution, VISA
[4] = test system: vancomycin-resistant S. aureus (VRSA, 6); assay: MIC broth microdilution, VRSA
[5] = test system: heterogeneous VISA (hVISA, 10); assay: MIC broth microdilution, hVISA
[6] = test system: S. pneumoniae (22); assay: MIC broth microdilution, S. pneumoniae; details: for MIC 50% / MIC 90%: S. pneumoniae (22), MHB + lysed horse blood
[7] = test system: Staphylococcus epidermidis (43 strains); assay: MIC broth microdilution, S. epidermidis; details: S. epidermidis (43)
[8] = test system: VanA vancomycin-resistant E. faecium (10); assay: MIC broth microdilution, VanA E. faecium; details: E. faecium, VanA (10)
[9] = test system: VanB vancomycin-resistant E. faecium (10); assay: MIC broth microdilution, VanB E. faecium; details: E. faecium, VanB (10)
[10] = test system: S. aureus ATCC 25923; assay: Neutropenic murine thigh infection model; details: for AUCc-t (AUC difference between control and treated animals): 24 h time kill
[11] = test system: VanA vancomycin-resistant E. faecalis (11); assay: MIC broth microdilution, VanA E. faecalis; details: E. faecalis, VanA (11)
[12] = test system: VanB vancomycin-resistant E. faecalis (12); assay: MIC broth microdilution, VanB E. faecalis; details: E. faecalis, VanB (12)
[13] = test system: Staphylococcus aureus (65 strains); assay: MIC broth microdilution, S. aureus all isolates; details: S. aureus (65), all resistance subsets
[14] = test system: β-hemolytic streptococci (23); assay: MIC broth microdilution, β-hemolytic streptococci; details: for MIC 50% / MIC 90%: β-hemolytic streptococci (23), MHB + lysed horse blood
[15] = test system: VanC enterococci (22); assay: MIC broth microdilution, vanC-carrying enterococci; details: VanC enterococci (22)
[16] = test system: vancomycin-susceptible E. faecium (21); assay: MIC broth microdilution, vancomycin-susceptible E. faecium; details: E. faecium, vancomycin-susceptible (21)
[17] = test system: vancomycin-susceptible E. faecalis (23); assay: MIC broth microdilution, vancomycin-susceptible E. faecalis; details: E. faecalis, vancomycin-susceptible (23)
[18] = 1 mg/kg single intraperitoneal dose
[19] = 4 mg/kg single intraperitoneal dose
[20] = 16 mg/kg single intraperitoneal dose

Compound | MIC 50% [1] [µg/mL] | MIC 90% [1] [µg/mL] | MIC 50% [6] [µg/mL] | MIC 90% [6] [µg/mL] | MIC 50% [7] [µg/mL] | MIC 90% [7] [µg/mL] | MIC 50% [8] [µg/mL] | MIC 90% [8] [µg/mL] | MIC 50% [9] [µg/mL] | MIC 90% [9] [µg/mL] | MIC 50% [11] [µg/mL] | MIC 90% [11] [µg/mL] | MIC 50% [12] [µg/mL] | MIC 90% [12] [µg/mL] | MIC 50% [13] [µg/mL] | MIC 90% [13] [µg/mL] | MIC 50% [14] [µg/mL] | MIC 90% [14] [µg/mL] | MIC 50% [15] [µg/mL] | MIC 90% [15] [µg/mL] | further results
CNC(CC(C)C)C(=O)NC1C(=O)NC(CC(N)=O)C(=O)NC2C(=O)NC3C(=O)NC(C(=O)NC(C(=O)NCCOCCOCCN)c4cc(O)cc(O)c4-c4cc3ccc4O)C(O)c3ccc(c(Cl)c3)Oc3cc2cc(c3OC2OC(CO)C(O)C(O)C2OC2CC(C)(NCc3ccc(-c4ccc(Cl)cc4)cc3)C(O)C(C)O2)Oc2ccc(cc2Cl)C1O (stereo not shown) [Compound 9] | 0.12 (≈ 0.0674 µM) | 0.12 (≈ 0.0674 µM) | 0.06 | 0.06 | 0.06 (≈ 0.0337 µM) | 0.06 (≈ 0.0337 µM) | 1 (≈ 0.562 µM) | 2 (≈ 1.12 µM) | 0.06 (≈ 0.0337 µM) | 0.12 (≈ 0.0674 µM) | 4 (≈ 2.25 µM) | 8 (≈ 4.49 µM) | 0.25 (≈ 0.14 µM) | 0.25 (≈ 0.14 µM) | 0.12 (≈ 0.0674 µM) | 0.5 (≈ 0.281 µM) | 0.06 | 0.12 | 0.12 (≈ 0.0674 µM) | 0.5 (≈ 0.281 µM) | MIC 50% [2]: 0.12 µg/mL (≈ 0.0674 µM); MIC 90% [2]: 0.12 µg/mL (≈ 0.0674 µM); MIC 50% [3]: 0.25 µg/mL (≈ 0.14 µM); MIC 50% [4]: 4 µg/mL (≈ 2.25 µM); MIC 50% [5]: 0.12 µg/mL (≈ 0.0674 µM); MIC 90% [5]: 0.12 µg/mL (≈ 0.0674 µM); Max Kill (maximum decrease from initial infection level) [10, 18]: 0.98 Log10 CFU/thigh; AUCc-t (AUC difference between control and treated animals) [10, 18]: 7.4 (Log10 CFU/thigh)/hr; Max Kill (maximum decrease from initial infection level) [10, 19]: 0.5 Log10 CFU/thigh; AUCc-t (AUC difference between control and treated animals) [10, 19]: 17.2 (Log10 CFU/thigh)/hr; Max Kill (maximum decrease from initial infection level) [10, 20]: −0.01 Log10 CFU/thigh; AUCc-t (AUC difference between control and treated animals) [10, 20]: 24.6 (Log10 CFU/thigh)/hr; MIC 50% [16]: 0.06 µg/mL (≈ 0.0337 µM); MIC 90% [16]: 0.12 µg/mL (≈ 0.0674 µM); MIC 50% [17]: 0.12 µg/mL (≈ 0.0674 µM); MIC 90% [17]: 0.25 µg/mL (≈ 0.14 µM)
Teicoplanin [reference compound] | 0.5 | 1 | 0.12 | 0.12 | 2 | 4 | 64 | >64 | 1 | 1 | 64 | >64 | 0.5 | 1 | 0.5 | 8 | 0.12 | 0.25 | 1 | 2 | MIC 50% [2]: 0.5 µg/mL; MIC 90% [2]: 0.5 µg/mL; MIC 50% [16]: 1 µg/mL; MIC 90% [16]: 1 µg/mL; MIC 50% [17]: 0.5 µg/mL; MIC 90% [17]: 0.5 µg/mL
CCCCCCCCCCNCCNC1(C)CC(OC2C(Oc3c4cc5cc3Oc3ccc(cc3Cl)C(O)C3NC(=O)C(NC(=O)C5NC(=O)C(CC(N)=O)NC(=O)C(NC(=O)C(CC(C)C)NC)C(O)c5ccc(c(Cl)c5)O4)c4ccc(O)c(c4)-c4c(cc(O)c(CNCCOCCOCC[N+](C)(C)C)c4O)C(C(=O)O)NC3=O)OC(CO)C(O)C2O)OC(C)C1O (stereo not shown) [Compound 1] | 0.06 | 0.06 | 0.015 | 0.03 | 0.03 | 0.06 | 4 | 8 | 0.015 | 0.03 | 8 | 8 | 0.12 | 0.12 | 0.06 | 0.12 | 0.03 | 0.06 | 0.06 | 0.25 | MIC 50% [3]: 0.12 µg/mL; MIC 50% [4]: 2 µg/mL; MIC 50% [5]: 0.06 µg/mL; MIC 90% [5]: 0.06 µg/mL; fold more potent than linezolid ([6]; S. pneumoniae): 32 fold; Max Kill (maximum decrease from initial infection level) [10, 18]: 0.15 Log10 CFU/thigh; AUCc-t (AUC difference between control and treated animals) [10, 18]: 28 (Log10 CFU/thigh)/hr; Max Kill (maximum decrease from initial infection level) [10, 19]: −1.14 Log10 CFU/thigh; AUCc-t (AUC difference between control and treated animals) [10, 19]: 32.7 (Log10 CFU/thigh)/hr; Max Kill (maximum decrease from initial infection level) [10, 20]: −1.07 Log10 CFU/thigh; AUCc-t (AUC difference between control and treated animals) [10, 20]: 60.4 (Log10 CFU/thigh)/hr; in vivo efficacy against S. aureus (in words) ([10]; neutropenic soft tissue infection model): bactericidal characteristics and prolonged in vivo activity; fold more potent than teicoplanin and daptomycin ([14]; β-hemolytic streptococci): two- to four; fold more potent than vancomycin ([14]; β-hemolytic streptococci): four- to eight; MIC 50% [16]: 0.03 µg/mL; MIC 90% [16]: 0.03 µg/mL; MIC 50% [17]: 0.06 µg/mL; MIC 90% [17]: 0.12 µg/mL

Reference: patent publication US20140171357A1, “VANCOMYCIN DERIVATIVES” (Seachald Pharmaceuticals, Inc., priority 2011, published 2014)
